“Also recorded” adds a separate entry of the source. Read-outs that look alike come from different tables or passages of the source. Values belong to the compound of their own block, whether it stands above or below them.
Assays:
[1] = tested on: NO production in RAW 264.7 cells; experiment: nitric oxide (NO) production inhibitory activity in LPS-treated RAW 264.7 cells (Griess reaction); format: cell-based; conditions: for inhibition at 50 µg/mL: read-out: Anti-Inflammatory (NO Production Inhibitory Activity) % Inhibition at 50 µg/mL; for NO production inhibitory activity (in words): RAW 264.7 macrophage cells
Experimental: The NO inhibitory activity was performed using the same procedure as previously reported. RAW 264.7 (American Type Culture Collection, Manassas, VA, USA) were seeded at 4 × 10^4 cells/well in 96 well plates suspended in 100 μL DMEM supplemented with 10% FBS and incubated at 37 °C 5% CO2 overnight. Cells were incubated with 1 µg/mL LPS for 1 h and treated with various concentrations of sample compounds and vehicle control (DMSO) for 24 h. After 24 h, the NO production inhibitory was determined in the culture supernatant using the Griess reaction by adding 100 µL of Griess reagent in a 96 well plate for 10 min. The determination of nitric oxide was measured at 570 nm with Biochrom EZ Read 400 ELISA microplate reader (Biochrom Ltd., Cambridge, United Kingdom). Additionally, the data were presented as IC50 which was calculated with GraphPad Prism 6.0 software.

α-glucosidase = target: T1, α-glucosidase (Saccharomyces cerevisiae, UniProt P53341); experiment: biochemical; conditions: for inhibition at 200 µg/mL: read-out: α-Glucosidase Inhibitory Activity % Inhibition at 200 µg/mL
T1 construct: purchased Sigma, St. Louis, MO, USA G5003
Experimental: A colorimetric α-glucosidase assay was carried out by the previously described procedure. Briefly, the sample solution was dissolved in DMSO after the solutions were diluted with a phosphate buffer (100 mM KH2PO4, pH 6.9) become DMSO (10%, v/v) concentration. The substrate, p-nitrophenyl α-D-glucoside (Sigma, St. Louis, USA, CAS No. N1377), (c 1.5 mM), was prepared by dissolving with phosphate buffer. The tested samples (50 uL) were combined with 100 μL of the α-glucosidase enzyme solution (0.35 U/mL, Sigma, St. Louis, MO, USA, CAS. No. G5003), then the mixture was pre-incubated for 10 min at 37 °C. The enzymatic reaction was started by applying substrate (100 μL, c 1.5 mM) into the mixture and incubated at 37 °C for 20 min. The reaction was subsequently terminated by the addition of Na2CO3 (1 mL, c 1 M). The absorption was immediately measured at 405 nm by determining the quantity of p-nitrophenol released from the substrate.

[2] = cytotoxicity / cell viability MTT assay; format: cell-based; conditions: mouse, RAW 264.7 cells, RAW 264.7, 24 h
Experimental: (§1) Cell viability studies were evaluated by the MTT (3-[4,5-dimethylthiazol-2-yl]-2,5-diphenyl tetrazolium bromide) assay. In brief, RAW 264.7 cells (5 × 10^4 cells/well) were cultured and incubated in 96-well plates for 24 h. The samples were prepared in DMSO at different concentrations ([…]). The cells were then treated with samples in DMEM medium (10% FBS, […] streptomycin, and 100 IU/mL penicillin at 37 °C in a 5% CO2) for 24 h. The medium was then removed and each well was filled with fresh DMEM containing 0.5 mg/mL MTT solution for 4 h at 37 °C in a 5% CO2. After that, the medium was removed, and the formazan precipitate was dissolved in DMSO [21]. The absorbance was measured at 550 nm on a microplate reader. All processes were performed in triplicate.

RAW 264.7 cells = experiment: cytotoxicity / cell viability MTT assay; format: cell-based
Experimental: as §1

[3] = Mus musculus, RAW264.7, LPS 1 µg/mL, 24 h
[4] = read-out: α-Glucosidase Inhibitory Activity IC50

T1 sequence (P53341 whole entry): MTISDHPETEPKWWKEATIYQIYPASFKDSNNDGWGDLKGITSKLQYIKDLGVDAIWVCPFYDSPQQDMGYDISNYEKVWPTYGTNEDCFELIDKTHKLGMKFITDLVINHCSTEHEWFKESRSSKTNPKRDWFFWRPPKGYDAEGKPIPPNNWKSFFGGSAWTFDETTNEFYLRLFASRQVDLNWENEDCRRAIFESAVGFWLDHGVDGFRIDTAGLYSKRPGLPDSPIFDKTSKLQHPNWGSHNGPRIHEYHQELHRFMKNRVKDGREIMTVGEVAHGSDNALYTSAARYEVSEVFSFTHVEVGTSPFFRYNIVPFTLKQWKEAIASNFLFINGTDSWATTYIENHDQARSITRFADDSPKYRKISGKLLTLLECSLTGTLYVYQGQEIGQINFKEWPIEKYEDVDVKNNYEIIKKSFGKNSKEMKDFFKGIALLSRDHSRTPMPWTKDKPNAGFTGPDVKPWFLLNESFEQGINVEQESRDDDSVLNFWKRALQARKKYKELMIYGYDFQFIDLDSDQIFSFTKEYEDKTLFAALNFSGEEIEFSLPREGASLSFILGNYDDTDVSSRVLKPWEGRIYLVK

SMILES: COC(=O)C[C@@]12OC(=O)C[C@@H](C)[C@@H]1Oc1cccc(O)c1C2=O (relative stereo) [Compound 1, Daldiniaeschsone A]
Anti-Inflammatory (NO Production Inhibitory Activity) IC50 ([1]; LPS 1 µg/mL, 24 h): inactive | inhibition at 50 µg/mL [1, 3]: 26.5% | NO production inhibitory activity (in words) [1]: no NO production inhibitory activities | IC50 (α-glucosidase): 160 ± 110 µM | inhibition at 200 µg/mL (α-glucosidase): 98.7% | viability at 24 h, 50 µg/mL [2]: > 75% | cytotoxicity against RAW 264.7 cells at 50 µg/mL (in words) (RAW 264.7 cells): without toxicity; also recorded: no cytotoxicity

SMILES: C[C@H]1O[C@H](O[C@H]2[C@H](O)[C@@H](O)[C@@H](O[C@H]3[C@H](O)[C@@H](O)C(O)O[C@@H]3CO)O[C@@H]2CO)[C@H](O)[C@@H](O)[C@@H]1N[C@H]1C=C(CO)[C@@H](O)[C@H](O)[C@H]1O (some centres unmarked) [Acarbose, reference compound]
inhibition at 200 µg/mL (α-glucosidase): 95.6%

SMILES: COC(=O)C[C@@]12OC(=O)C[C@@H](C)[C@@H]1Oc1ccc(-c3ccc4c(c3O)C(=O)[C@]3(CC(=O)OC)OC(=O)C[C@@H](C)[C@@H]3O4)c(O)c1C2=O [Compound 2, Daldiniaeschsone B]
Anti-Inflammatory (NO Production Inhibitory Activity) IC50 ([1]; LPS 1 µg/mL, 24 h): inactive | inhibition at 50 µg/mL [1, 3]: 36.9% | NO production inhibitory activity (in words) [1]: no NO production inhibitory activities | IC50 (α-glucosidase): 230 µM | inhibition at 200 µg/mL (α-glucosidase): 96.8% | cytotoxicity against RAW 264.7 cells at 50 µg/mL (in words) (RAW 264.7 cells): without toxicity; also recorded: no cytotoxicity

SMILES: O=C1CC[C@H](O)c2cccc(O)c21 [Compound 3, (+)-regiolone]
inhibition at 200 µg/mL (α-glucosidase): 97.8% | IC50 (α-glucosidase; [4]): 850 ± 1190 µM

SMILES: O=C1C[C@@H](O)[C@@H](O)c2cccc(O)c21 [Compound 4, (+)-3,4-dihydro-3,4,8-trihydroxy-1(2H)-naphthalenone]
inhibition at 200 µg/mL (α-glucosidase): 97.8% | IC50 (α-glucosidase; [4]): 550 ± 1330 µM

SMILES: C[C@H]1Cc2cccc(O)c2C(=O)O1 [Compound 5, (+)-mellein]
inhibition at 200 µg/mL (α-glucosidase): 97.5% | IC50 (α-glucosidase; [4]): 760 ± 90 µM

IC50 ([1]; Mus musculus, RAW264.7, LPS 1 µg/mL, 24 h, read-out: Anti-Inflammatory (NO Production Inhibitory Activity) IC50): 19.6 ± 0.62 µM
SMILES: COc1ccc2c(c1)c(CC(=O)O)c(C)n2C(=O)c1ccc(Cl)cc1 [Indomethacin, reference compound]
inhibition at 50 µg/mL [1, 3]: 71% | viability at 24 h, 50 µg/mL [2]: 85 ± 2.92%

Reference: paper PMC8147462, “Daldiniaeschsone A, a Rare Tricyclic Polyketide Having a Chromone Unit Fused to a δ-Lactone and Its Symmetrical Biphenyl Dimer, Daldiniaeschsone B, from an Endophytic Fungus Daldinia eschscholtzii SDBR-CMUNKC745” (Journal of Fungi, 2021)
